# Source: patent USRE38115E1, “Dextromethorphan and an oxidase inhibitor for treating intractable conditions” (Center for Neurologic Study, priority 1996, dated 2003)
# Values joined by “and” are separate entries in the source; they are usually repeats but may differ in a detail not shown here. Equal entries are not always repeated.
# How the values were obtained:
# debrisoquin hydroxylase = debrisoquin hydroxylase (Homo sapiens, UniProt P10635); details: cited from earlier work
# [1] = test system: dextromethorphan metabolism; assay: Urinary DM/DR ratios (Example 1); details: urine, several hours after single 60 mg oral DM; ALS patients, one value per patient
# Procedure: Six patients suffering from ALS were administered orally a single 60 mg dextromethorphan dose. Several hours later, a urine sample was collected, and the urine concentrations of dextromethorphan (DM) and dextrorphan (DR) were measured as described below to determine a DM/DR ratio.
# To this was added 2000 units of betaglucuronidase in 1 mL of acetate buffer (0.1M, pH 5.0). The mixture was incubated for 18 hours at 37° C. and then extracted by adding 1 mL of phosphate buffer (pH 12, 0.10M) and 7 mL of n-butanol/hexane (10:90 v/v). After mixing and centrifugation, the organic layer was transferred to a clean tube, acidified with 400 uL of 0.01N HCL and 20 microliters (uL) of aqueous phase injected into a high performance liquid chromatography (HPLC) system. The HPLC used a phenyl column equilibrated with a mobile phase of acetonitrile:water (51:49 v/v) containing 10 mM KHPO4, 10 mM hexane sulfonic acid, pH 4.0 (flow rate 1.2 mL/min).
# Briefly, 0.5 ml urine samples were spiked with 500 nanograms (ng) of dimethacrine. The urine pH was adjusted to […] with 0.1M acetate buffer (usually about 1.0 ml), and beta-glucuronidase was added (2000 units/ml urine). The mixture was incubated and shaken at 37° C. for 18 hours. The urine was subsequently adjusted to pH 10-11 with 1.0 mL of phosphate buffer and the urine extracted with 5 mL of dichloromethane. […]
# [2] = Plasma concentrations of DM (Example 2); type: in vivo, human; details: DM 120 MG/DAY oral, quinidine 0; blood 10-12 hours later; one value per patient; listed as dextromethorphan
# Procedure: Between 10 and 12 hours later, blood was sampled, blood plasma was isolated by centrifugation, and the plasma was analyzed to determine the DM concentration using the thebaine/HPLC method.
# Between 10 and 12 hours later, blood was sampled and the plasma was analyzed for DM using thebaine/HPLC.
# DM oxidation = assay: Urinary DM/DRP ratio with other antioxidants (Example 4); details: urine; for baseline DM/DRP ratio: DM alone
# Procedure: In these tests, DM was administered at a constant dosage to various individuals, all were healthy volunteers. DM was taken both before and after a candidate antioxidant was taken, and urine samples were collected at appropriate times and analyzed to determine the quantity of DM and its principle metabolite dextrorphan (DRP) in the urine.
# Twelve healthy volunteers were studied.
# After the baseline DM/DRP value for each volunteer had been determined, a candidate antioxidant was administered. […] After an appropriate delay, a second urine sample was obtained and analyzed. Each agent was administered to two patients.
# [3] = test system: patients with emotional lability; details: patients with bilateral neurological damage; described in U.S. Pat. No. 5,206,248; cited from earlier work
# Sequence of debrisoquin hydroxylase (P10635 whole entry): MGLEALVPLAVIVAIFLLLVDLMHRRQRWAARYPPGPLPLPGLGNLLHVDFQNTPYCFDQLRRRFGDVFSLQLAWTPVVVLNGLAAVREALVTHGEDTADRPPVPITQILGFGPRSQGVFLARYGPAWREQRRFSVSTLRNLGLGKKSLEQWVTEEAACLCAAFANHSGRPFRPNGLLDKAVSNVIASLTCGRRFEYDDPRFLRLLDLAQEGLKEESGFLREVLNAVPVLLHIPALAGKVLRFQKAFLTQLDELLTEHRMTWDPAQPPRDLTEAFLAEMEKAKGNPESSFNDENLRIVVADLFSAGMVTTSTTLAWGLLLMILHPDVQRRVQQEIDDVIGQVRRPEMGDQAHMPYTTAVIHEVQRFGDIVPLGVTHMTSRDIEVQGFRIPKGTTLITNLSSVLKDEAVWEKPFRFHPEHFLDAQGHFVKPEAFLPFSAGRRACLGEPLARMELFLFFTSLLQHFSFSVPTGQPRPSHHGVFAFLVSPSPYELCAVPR
compound,measurement,setting,value
CNCCC=C1c2ccccc2CCc2ccccc21 [nortriptyline],Ki,debrisoquin hydroxylase,≤ 50 µM
Cc1cccc(C)c1OCC(C)N (stereo not shown) [mexiletine],Ki,debrisoquin hydroxylase,≤ 50 µM
C=CCOc1ccccc1OCC(O)CNC(C)C (stereo not shown) [oxprenolol],Ki,debrisoquin hydroxylase,≤ 50 µM
CC(CCc1ccccc1)NCC(O)c1ccc(O)c(C(N)=O)c1 (stereo not shown) [labetalol],Ki,debrisoquin hydroxylase,≤ 50 µM
"COc1ccc2c(c1)[C@@]13CCCC[C@H]1[C@@H](C2)N(C)CC3 [DM, (+)-3-methoxy-N-methylmorphinan]","DM/DR Ratio, no quinidine",[1],<0.0002 and 0.054 and 0.0048 and 0.0220 and 0.0002 and 0.0003
same,DEXTROMETHORPHAN PLASMA LEVEL,[2],9.3 NG/ML and NOT DETECTABLE (2×) and 16.5 NG/ML and 6.05 NG/ML
same,baseline DM/DRP ratio,"DM oxidation; extensive metabolizers, healthy volunteers",≤ 0.06
same,baseline DM/DRP ratio,DM oxidation; one poor metabolizer (control),1.338
same,"DM/DRP ratio, pre-drug baseline","DM oxidation; DM before candidate antioxidant, single subjects",0.02 (2×) and 0.00 (3×) and 0.03 and 0.06 (2×)
same,effect on symptoms of emotional lability,[3],not observed in any patients who received DM alone
